Data as given in patent US5354749A, “Sulfonylbenzyl-substituted benzo- and pyridopyridones” (Bayer Aktiengesellschaft, priority 1992, dated 1994).

Tests used:
[1] = biological target: T1, Angiotensin II receptor (Bos taurus, UniProt P25104); test: Angiotensin II receptor binding on membrane fractions of the adrenal cortex (3H-angiotensin II); settings: bovine adrenal cortex membranes; 3H-angiotensin II 3-5 nM; 60 minutes, room temperature
T1 construct: carried out on partially purified membrane fractions of bovine AC with radioactive angiotensin II; from tissue; host or cells: bovine adrenal cortex, partially purified membrane fractions
T1 sequence (P25104 1-359): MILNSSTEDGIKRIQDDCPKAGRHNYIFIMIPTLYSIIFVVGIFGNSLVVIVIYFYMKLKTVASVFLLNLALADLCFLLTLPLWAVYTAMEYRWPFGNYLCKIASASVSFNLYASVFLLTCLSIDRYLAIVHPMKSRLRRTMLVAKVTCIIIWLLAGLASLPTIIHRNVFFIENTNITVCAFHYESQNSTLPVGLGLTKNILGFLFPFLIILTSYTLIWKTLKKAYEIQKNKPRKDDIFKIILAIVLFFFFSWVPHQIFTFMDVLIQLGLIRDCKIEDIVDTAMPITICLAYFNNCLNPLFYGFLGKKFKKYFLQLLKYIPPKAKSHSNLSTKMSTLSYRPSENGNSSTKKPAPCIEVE
Procedure: Bovine adrenal cortices (AC) which are freshly removed and thoroughly freed from medulla of the capsule are comminuted in sucrose solution (0.32 M) with the aid of an Ultra-Turrax (Janke & Kunkel, Staufen i.B.) to give a coarse membrane homogenate, which is partially purified in two centrifugation steps to give membrane fractions. The investigations in receptor binding are carried out on partially purified membrane fractions of bovine AC with radioactive angiotensin II in an assay volume of 0.25 ml which contains, specifically, the partially purified membranes (50-80 μg), ^3 H-angiotensin II (3-5 nM), test buffer solution (50 mM Tris, pH 7.2) 5 mM MgCl2 and the substances to be investigated. After an incubation time of 60 minutes at room temperature, the non-bound radioactivity of the samples is separated off by means of moistened glass fibre filters (Whatman GF/C) and the bound radioactivity is measured […] in a scintillation cocktail, after the protein has been washed with ice-cold buffer solution (50 mM Tris/HCl, pH 7.4, 5% PEG 6000). The raw data were analysed with computer programs to give Ki and IC50 values (Ki : IC50 values corrected for the radioactivity used; IC50 values: concentration at which the substance to be investigated causes 50% inhibition of the specific binding of the radioligand).

[2] = system: angiotensin II-induced contraction of the isolated rabbit aorta; test: Inhibition of angiotensin II-induced contraction (vasoconstriction) on isolated aortic rings from rabbits in vitro; settings: at 3rd = submaximum agonist concentration
Procedure: Rabbits of both sexes are stunned by a blow to the neck and exsanguinated, or optionally anaesthetised with Nembutal (about 60-80 mg/kg i.v.) and sacrificed by opening the thorax. The thoracic aorta is removed, freed from adhering connective tissue and divided into ring segments 1.5 mm wide, and these are introduced individually, under an initial load of about 3.5 g, into 10 ml organ baths with carbogen-gassed Krebs-Henseleit nutrient solution thermostatically controlled at 37° C. and having the following composition: 119 mmol/l of NaCl; 2.5 mmol/l of CaCl2 ×2 H2 O; 1.2 mmol/l of KH2 PO4; 10 mmol/l of glucose; 4.8 mmol/l of KCl; 1.4 mmol/l of MgSO4 ×7 H2 O and 25 mmol/l of NaHCO3.
The contractions are recorded isometrically by Statham UC2 cells via a bridge amplifier (from Mulheim or DSM Aalen) and digitised and evaluated by means of an A/D converter (System 570, Keithley Munich). The agonist dose/effect curves (DEC) are plotted hourly. For each DEC, 3 or 4 individual concentrations are applied to the baths at intervals of 4 minutes. At the end of the DEC and the subsequent wash-out cycles (16 times for in each case about 5 seconds/minute with the abovementioned nutrient solution), a 28-minute rest or incubation phase follows, within which the contractions as a rule reach the starting value again. […]

CCCCc1cc2ccccc2c(=O)n1Cc1ccc(S(=O)(=O)N2CCCC2C(=O)O)cc1Cl (centres unmarked) [Example 2, N-4-[3-Butyl-1,2-dihydro-1-oxo-isoquinolin-2-yl-methyl]3-chlorophenylsulphonylproline]
Ki [1]: 1700 nM
IC50 [2]: 660 nM
